Source: patent US11904057B2, “Nanoparticle-hydrogel composite for nucleic acid molecule delivery” (The United States of America, as represented by the …, priority 2018, dated 2024)

Key:
[1] = tested on: FAM-labeled scrambled miRNA; assay: Fluorescence-based binding assay between peptides and miRNA; conditions: 30 nM FAM-miRNA; peptide vs miRNA molar ratio 0.3125 to 1000; complexed in water, diluted with 25 mM HEPES pH 7.4
Protocol: Binding interactions among peptides and miRNA were studied using a fluorescence measurement. Scrambled miRNA (sequence mismatched with all possible mRNAs in human) labeled with FAM (6-carboxyfluorescein, 5′ end) was mixed with peptides having peptide vs miRNA molar ratio ranging from 0.3125 to 1000. Complexation was first performed in water, followed by dilution of the complex with HEPES (25 mM HEPES, pH 7.4) to keep pH of the suspension unaltered across all peptide concentrations. With increasing mole ratio, FAM fluorescence gradually gets quenched resulting from peptide-mediated condensation. […] Concentrations of Peptide 1 to induce maximum quenching were close to a molar ratio of 50:1 between Peptide 1 and miRNA which corresponds to an N/P ratio (charge ratio) of 10:1. Accordingly, a ratio of 10:1 as the N/P ratio was used for further assessment.
Fluorescence-based binding assay was used to determine interaction between peptides and miRNA. […] FAM fluorophore on miRNA was excited at 490 nm and emission at 520 nm was recorded using a microplate reader (Tecan Infinite 200) with a band-pass filter of 20 nm. A PTI fluorimeter was used to record fluorescence spectrum for Peptide 1/miRNA nanoparticles at N/P ratio 10:1 (molar ratio of 50:1, Peptide 1 vs miRNA) in the emission range of 500-700 nm.

H2052 cells [2] = assay: Specificity of endocytosis inhibitors (Transferrin / Dextran uptake, flow cytometry); type: cell-based, human; conditions: Transferrin and Dextran (70 kD) markers, 1 h
Protocol: FIGS. 10A-10D. Determining the effect of chemical inhibitors on endocytic uptake of Transferrin and Dextran (70 kD), the markers for clathrin-dependent and macropinocytic pathways, in H2052 human mesothelioma cells. Flow cytometric histograms of cells treated with (FIG. 10A) Rhodamine-labeled Transferrin for 1 h in presence or absence of Cytochalasin D, Dynasore, EIPA and cells treated (FIG. 10B) with Rhodamine-labeled Transferrin for 1 h in presence or absence of Cytochalasin D, Dynasore, EIPA. Flow cytometric histograms of cells (FIG. 10C) treated with FITC-labeled Dextran and cells treated with FITC-labeled Dextran (FIG. 10D) for 1 h in presence or absence of Nystatin.
Flow cytometry. In vitro miRNA transfection efficiency of nanoparticles was determined using human mesothelioma cell H2052 (ATCC). For flow cytometry, 1.2×10^5 cells were seeded on 6 well plate 24 h before treatment and allowed to grow under normal culture conditions. FAM (6-carboxyfluorescein, 5′ end)-labeled scrambled miRNA (Thermo Fisher) was complexed with Peptide 1 in a 10:1 N/P ratio according to the protocol described above. Nanoparticles obtained were diluted with optiMEM (Thermo Fisher) to maintain a final miRNA concentration of 40 nM. Complexes of commercial transfection agents (In vivo jet PEI, Polyplus-transfection and DharmaFECT, Dharmacon) and equivalent amount of miRNA were prepared according to manufacturers' instruction. […] To determine the specificity of the inhibitors towards each endocytic pathway in H2052 cells, cellular internalization of Rhodamine or FITC-labeled Transferrin (marker for clathrin mediated uptake, Thermo Fisher) and Rhodamine or FITC-labeled Dextran (70 kD, marker for micropinocytosis, Thermo Fisher) in presence and absence of inhibitors were analyzed with flow cytometry. […] Median fluorescence intensity (MFI) for gated live cell population was determined for cells treated with each inhibitor and normalized with respect to the sample without inhibitor treatment.

H2052 cells [3] = assay: LDH cytotoxicity assay; type: cell-based, human; conditions: 4 h post-incubation
Protocol: LDH assay kit (Roche) was used to determine any possible cytotoxicity of Peptide 1/miRNA nanoparticles and soluble Peptide 1. Cell supernatant was taken out after 4 h of treatment and a reaction mixture containing diaphorase/NAD+/iodotetrazolium chloride/sodium lactate was added following manufacturer's instructions to detect any released LDH (Lactate Dehydrogenase). Triton X-100 at a final concentration was used as a high control for maximal releasable LDH, while untreated cells were taken as low control for spontaneous LDH release. Absorbance was measured at 490 nm after 5 minutes of incubation at 37° C. Cytotoxicity was calculated using the equation: (Absorbance^treated−Absorbance^low control/Absorbance^high control−Absorbance^low control)×100.

[4] = Hydrogel composite formation with different hydrogelating peptides; type: physicochemical; conditions: 24 h post-assembly, irrespective of nanoparticle loaded
Protocol: Preparation and characterization of hydrogel composites. Required amount of miRNA was diluted in water and mixed with an aqueous solution of Peptide 1 in a 10:1 N/P ratio to maintain a final volume of 25 μL. The suspension was incubated for 30 min at 37° C. with constant agitation and the resulting nanoparticles were mixed with 25 μL of chilled 2×HBS (50 mM HEPES 300 mM NaCl, pH 7.4). 50 μL of 1% (w/v) solution of a hydrogelating peptide (Peptides 1, 2, 3 and 4) was prepared in a chilled 25 mM HEPES (pH 7.4), mixed with an equal volume of nanoparticle suspension and incubated at 37° C. for overnight to afford 0.5 wt % hydrogel composites. Gel composites containing 1% of hydrogelating peptide was also prepared similarly. For Transmission Electron Microscopy of gel composites, ˜4 μL of the sample was deposited onto 200 mesh carbon coated copper grids and allowed to adhere for 30 seconds. The excess sample was removed with a filter paper. Uranyl acetate (5 μL) was used to stain the grids for 30 seconds. Grids were dried for 2-3 minutes. Images were acquired using a Tecnai T12 transmission electron microscope.

[5] = Circular dichroism spectroscopy of Peptide 1 with miRNA / heparin; type: physicochemical
Protocol: Circular Dichroism Spectroscopy. Secondary structure of Peptide 1 in presence or absence of added miRNA was determined using Circular Dichroism (CD) spectroscopy. For recording CD spectra in water, 150 μL from the aqueous solutions of Peptide 1 was mixed with 150 μL of an aqueous solution of scrambled miRNA to maintain peptide vs miRNA N/P ratios at 10:1, 5:1, 2:1 and 1:1. These N/P ratios correspond to peptide vs miRNA mole ratios of 50:1, 25:1, 10:[…], respectively. Nanoparticles and soluble peptides of 300 μL total volume were equilibrated for 30 min at 37° C. with agitation. Final concentration of miRNA was maintained at 5 μM. Samples were transferred into a quartz cell of path-length 1 mm and data collection were initiated immediately. Ellipticity was measured over a wavelength range of 190-260 nm at 37° C., using 1 nm step size and a set of 3-5 scans. Raw data was corrected by subtracting the absorbance of samples from those of miRNA and converted to mean residue ellipticity using the equation: [θ]=θobs/(10*l*c*r) where θobs is the measured ellipticity (mdeg), l is the path length (0.1 cm), c is the concentration of peptide (determined from UV absorbance at 220 nm) and r corresponds to the number of amino acid residues in the peptide. […]

VLTKVKTKV^DPPTKVEVKVLV-NH2 [Peptide 3]
Extent of quenching of FAM fluorescence (peptide-mediated condensation of miRNA) [1]: not able to promote significant condensation of miRNA

C=C1[C@@H](C)[C@H]2[C@H](Cc3ccccc3)NC(=O)[C@]23[C@H](OC(C)=O)/C=C/[C@@](C)(O)C(=O)[C@@H](C)C/C=C/[C@H]3[C@@H]1O [Cytochalasin D]
Endocytic pathway inhibited (H2052 cells [2]): inhibitors for clathrin-dependent pathways

CCN(c1nc(N)c(C(=O)NC(=N)N)nc1Cl)C(C)C [EIPA]
Endocytic pathway inhibited (H2052 cells [2]): selective inhibitor of micropinocytosis

VKVKVKVKV^DPPTKVKVKVKV-NH2 [Peptide 1]
Cytotoxicity as compared to positive control Triton X-100 (H2052 cells [3]): 20%
Formation of gel-like material when used as self-assembling peptide [4]: does not form a gel-like material
Folding into a β-hairpin structure in the nanoparticles ([5]; N/P ratio 10:1, water): not enough to induce any significant folding
Heparin concentration at which evolution of β-sheet structure starts ([5]; Peptide 1 complexed with miRNA at N/P 10:1, water, 37° C.): 50 µg/mL
Extent of quenching of FAM fluorescence (peptide-mediated condensation of miRNA) [1]: maximal

O=C(N/N=C/c1ccc(O)c(O)c1)c1cc2ccccc2cc1O [Dynasore]
Endocytic pathway inhibited (H2052 cells [2]): inhibitors for clathrin-dependent pathways
